Where two headings read alike, the source gives them in different places.
Test system: Phytophthora infestans
Format: in vivo
Details: tomato (Patio) seedling, foliage application
[1] = concentration of present compound 50 ppm
[2] = concentration of present compound 200 ppm

Row | Compound | Control value [1] | Control value [2]
1 | COc1ccc(C(=O)NCC2CCCCC2)cc1F [present compound 7, N-(cyclohexylmethyl)-3-fluoro-4-methoxybenzamide] | ++ (40% or more and less than 60% of the lesion spot area on an untreated plant.) | ++++ (Less than 20% of the lesion spot area on an untreated plant.)
2 | COc1c(F)cc(C(=O)NCC2CCCCC2)cc1F [present compound 9, N-(cyclohexylmethyl)-3,5-difluoro-4-methoxybenzamide] | ++++ (Less than 20% of the lesion spot area on an untreated plant.) | ++++ (Less than 20% of the lesion spot area on an untreated plant.)
